Read-outs that look alike come from different tables or passages of the source.

Experiment [1] is described as follows: SOD mimetic activity / radical scavenging assay (INT method). Type of experiment: biochemical. The procedure: The radical scavenging ability with respect to the SOD mimetic activity of the prepared complexes was determined by the INT method. This method is based on a competitive reaction with the superoxide anion radical from KO2 between the measured compound (complex) and 2-(4-Iodophenyl)-3-(4-nitrophenyl)-5-phenyl-2H-tetrazolium chloride (INT). INT reacts with the single electron of O2^− and produces blue-green formazane detected as light absorption at 500 nm. Complexes with good antiradical activity also react with O2^−, and as a result of this, less formazane is formed.
The first type of antiradical activity measurements involved the determination of inhibition percent values of electron transfer on INT at specific concentrations (Table 9). Two concentrations were selected to achieve good solubility of the complexes (4 and 1 mM for 4a and 4c, 2 and 1 mM for 4b). The complex 4b dissolved readily at a concentration of 4 mM, but the mixture was very dark, making measurements at 500 nm difficult. Therefore, a less concentrated initial solution was used (2 mM) as the higher concentration. In total, 0.5 mL of the initial solutions was used to prepare sample solutions that also contained INT and KO2 solutions and DMSO with an overall volume of 3.5 mL. The resulting concentrations were c1 = 0.572 mM, c1* = 0.286 mM and c2 = 0.143 mM, respectively. Complexes 4a and 4c once again provided high percentages at c1 (approximately 96–99%) but the activity dropped below 24% at c2, while complex 4b maintained mediocre activity at both concentrations. It seems that the concentration increase had only a small effect on the activity of 4b; something similar was also observed in the DNA cleavage study for complex 4b. The complexes were compared with the model compound cystamine, which was used as a standard for superoxide antiradical scavenging due to the presence of a free […] group, which is also present in glutathione.
To improve the comparability of SOD mimetic activity, IC50 concentrations were determined by performing a series of measurements with decreasing concentration. IC50 values were calculated from the trend function equation as the concentration with 50% inhibition of electron transfer on INT (Table 10).
The method is based on the agent 2-(4-Iodophenyl)-3-(4-nitrophenyl)-5-phenyl-2H-tetrazolium chloride (INT), able to scavenge a superoxide radical anion from KO2. The reaction produces a blue-green formazane, which is detected as light absorption at 500 nm. The radical scavengers (measured complexes) compete with INT for radicals and reduce the formation of formazane and light absorption at 500 nm. Antiradical activity was measured on a Synergy HT BioTek spectrophotometer. DMSO was used as the solvent for the complex and KO2 (saturated solution). The INT initial solution (4 M) was prepared in a sodium tetraborate buffer solution with pH adjusted to 7.1 with HCl.
For each measurement, an initial solution of the sample (0.5 mL) of a specific concentration (4–0.1 mM) was prepared in DMSO. Due to the addition of INT (0.5 mL) and KO2 (0.5 mL) solutions and additional DMSO (2 mL), the concentrations of the measured complexes decreased seven times (3.5 mL of total mixture). Each result was the average value of three parallel measurements expressed with a standard deviation (more information in the Supplementary Materials). For the determination of SOD-IC50, several measurements with decreasing sample concentration were performed. […] A linear trend function of the percentage of inhibition and negative logarithm of concentration was used to calculate the SOD-IC50 value as the concentration with 50% inhibition of INT–formazane formation. […]
Green: 5c 5 mM (S. cerevisiae 1x10^9 cells /ml + 0.5 ml 0.9% NaCl + 0.5 ml 5c + 0.1 ml Resazurin OX) measured in time
S6. SOD Mimetic A ctivity A ssay
For each measurement, an initial solution of the sample of a specific concentration was prepared […]

In experiment [2] the test system is HEL cells (human lung fibroblast, normal). In words: MTT cytotoxicity assay, HEL. Type of experiment: cell-based. Particulars: 72 h. In general terms: Tetrazolium assays rely on reduction of a dye to a coloured formazan, in cell work by metabolically active cells.
Experimental: (§1) The cytotoxicity study of the prepared copper(II) complexes was performed using the MTT assay on human cell lines—A549 (adenocarcinoma human alveolar basal epithelial cell line), HepG2 (human liver cancer cell line) and HEL (human lung fibroblast cell line, normal cells).
(§2) The cytotoxicity of the prepared copper(II) complexes in human cell lines was evaluated using the 3-(4,5-dimethylthiazol-2-yl)-2,5-diphenyltetrazolium bromide (MTT) assay following the protocol by Mosmann. Briefly, A549 (human lung epithelial cells, carcinoma), HepG2 (human liver epithelial cells, carcinoma) and HEL (human lung fibroblast cells, normal) cells were seeded in plastic 96-well plates at a density of 1.5–2 × 10^4 cells per well. […] After the treatment, the samples were washed with phosphate-buffered saline (PBS), followed by 4 h of incubation with 1 mg/mL of MTT. Subsequently, the MTT solution was removed, and the formed formazane solids were dissolved in dimethyl sulfoxide for 30 min. The photometric evaluation (at 540 nm and 690 nm) was carried out using an xMark™ Microplate Absorbance Spectrophotometer (Bio-Rad, Hercules, CA, USA) [88].
(§3) A549 (ATCC® CCL-185), HepG2 (ATCC® HB-8065) and HEL299 (ATCC® CCL-137) cells were obtained from Lambda Life (Bratislava, Slovakia). A549 cells were kept in Dulbecco’s Modified Eagle’s Medium (DMEM) supplemented with 10% fetal bovine serum (FBS) and 1% antibiotics (penicillin and streptomycin). HepG2 cells were kept in Williams medium supplemented with 10% fetal bovine serum (FBS) and 1% antibiotics (penicillin and streptomycin). HEL299 cells were kept in Minimum Essential Medium (MEM) supplemented with 10% fetal bovine serum (FBS), 1% antibiotics (penicillin and streptomycin) and 1% non-essential amino acids (NEAA). The cells were cultured in a humidified atmosphere of 5% CO2 at 37 °C. Once the cells reached approximately 80% confluence, they were harvested and subcultured after trypsin treatment.
Another experiment concerns HepG2 cells. In words: MTT cytotoxicity assay, HepG2. It is filed as cell-based, human. To be noted: 72 h.
In a further experiment the test system is A549 cells. In words: MTT cytotoxicity assay, A549. Type of experiment: cell-based, human. Particulars: 72 h.

Experimental for A549 cells: as §1, §2, §3
Experimental for HepG2 cells: as §1, §2, §3

On to `NCCSSCCN` [cystamine, reference compound], for which the IC50 in experiment [1] (50% inhibition of electron transfer on INT, read-out: SOD-IC50) was 1700 ± 100 µM; in experiment [1] (INT method, read-out: concentration of 50% inhibition (SOD-IC50), given as range), greater than 1000 µM. Besides, the “Activity at c1 (%), inhibition of radical transfer to INT” value in experiment [1] (c1 = 0.572 mM) worked out at 22.1 ± 1.8%. Moreover, in experiment [1] (c2 = 0.143 mM), the “Activity at c2 (%), inhibition of radical transfer to INT” value worked out at 2.0 ± 0.0%.
As to `N.N.[Cl][Pt][Cl]` [cisplatin, reference compound], the values for the IC50 (in experiment [2]; with HepG2 cells; in the experiment on A549 cells) were 68.4 ± 0.3 µM, 16 ± 3.4 µM and 26.2 ± 4.1 µM, respectively.
